In patent publication US11161843B2, “Fused heterocyclic compound and composition containing same” (Sumitomo Chemical Company, Limited, priority 2017, dated 2021):

Tests used:
[1] = tested on: cotton aphid; assay: Test Example 2: irrigation into plant foot of cucumber seedling, cotton aphid inoculated after 7 days; assay type: in vivo, Aphis gossypii; settings: 1,000 ppm, 5 mL/seedling irrigated into plant foot, aphids inoculated after 7 days, counted after additional 6 days
Experimental: The test compounds were made to a formulation according to the method described in the Formulation Example 5, and thereto was added water to prepare a diluted solution containing a prescribed concentration of the test compound. Cucumber seedling (on the developmental stage of the second true leaf) was planted in a container, and the diluted solutions in the ratio on 5 mL/seedling were irrigated into the plant foot. After 7 days, approximately 30 of cotton aphid (all stages of life) were inoculated onto the cucumber leaves. After additional 6 days, the number of the surviving insects was examined, and the controlling value was calculated by the following equation. Controlling value (%)={1−(Cb×Tai)/(Cai×Tb)}*100 wherein the symbols in the formula represent the following descriptions. Cb: Number of the test insects in untreated group; Cai: Number of the surviving insects at the time of the investigation in untreated group; Tb: Number of the test insects in treated group; Tai: Number of the surviving insects at the time of the investigation in treated group; Here the “untreated group” represents a group where a similar treatment procedure to that of the treated group except not using the test compound is done.

[2] = tested on: brown planthopper (Nilaparvata lugens); assay: Test Example 3: spray on rice seedling, brown planthopper larvae; assay type: in vivo; settings: 500 ppm, spray 10 mL/seedling, 3rd instar larvae, counted after 6 days
Experimental: The test compounds were made to a formulation according to the method described in the Formulation Example 5, and thereto was added water containing 0.03 v/v % of a spreader to prepare a diluted solution containing a prescribed concentration of the test compound.
Rice (Oryza sativa) seedling (on the developmental stage of the second true leaf) was planted in a container, and the diluted solutions were sprayed into the seedling in a ratio of 10 mL/seedling. Thereafter, 20 of 3rd instar larvae of brown planthopper (Nilaparvata lugens) were released onto the rice leaves. After 6 days, the number of the surviving insects was examined, and the mortality was calculated by the following equation. Mortality (%)={1−the number of the surviving insects/20}×100

`CCS(=O)(=O)c1ccc2nncn2c1-c1ccc(OCC(F)(F)C(F)(F)F)cn1` [compound 4] showed a controlling value [1] of no less than 90% and a controlling value [2] of no less than 90%.
